Assay results: patent US10597388B2, “Pyridazinone herbicides” (FMC CORPORATION, priority 2014, dated 2020)

Tests used:
Assay in all cases: Test C greenhouse herbicide test, pre- and postemergence
Assay type in all cases: in vivo
[1] = tested on: corn (Zea mays)
How it was run: (§1)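 Each species was treated both before emergence, in a loam–sand soil mix, and after emergence, as 1- to 4-leaf seedlings in peat-based potting medium. Plants stayed in the greenhouse 13 to 15 d, then were scored from 0 (no effect) to 100 (complete control) relative to controls.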

[2] = tested on: ryegrass, Italian (Italian ryegrass, Lolium multiflorum)
How it was run: as §1

[3] = tested on: soybean (Glycine max)
How it was run: as §1

[4] = tested on: pigweed (Amaranthus retroflexus)
How it was run: as §1

[5] = tested on: foxtail, giant (giant foxtail, Setaria faberii)
How it was run: as §1

[6] = tested on: velvetleaf (Abutilon theophrasti)
How it was run: as §1

[7] = tested on: wheat (winter wheat, Triticum aestivum)
How it was run: as §1

[8] = tested on: lambsquarters (Chenopodium album)
How it was run: as §1

[9] = tested on: galium (catchweed bedstraw, Galium aparine)
How it was run: as §1

[10] = tested on: blackgrass (Alopecurus myosuroides)
How it was run: as §1

[11] = tested on: waterhemp (common waterhemp, Amaranthus rudis)
How it was run: as §1

[12] = tested on: nutsedge, yellow (yellow nutsedge, Cyperus esculentus)
How it was run: as §1

[13] = tested on: oilseed rape (Brassica napus)
How it was run: as §1

[14] = tested on: crabgrass, large (large crabgrass, Digitaria sanguinalis)
How it was run: as §1

[15] = tested on: johnsongrass (Sorghum halepense)
How it was run: as §1

[16] = tested on: morningglory (Ipomoea coccinea)
How it was run: as §1

[17] = Postemergence, 31 g ai/ha, scale 0 to 100 (0 no effect, 100 complete control)
[18] = Postemergence, 62 g ai/ha, 0 to 100 scale (0 no effect, 100 complete control)
[19] = Postemergence, 250 g ai/ha, scale 0 to 100, 0 no effect, 100 complete control, 13 to 15 d
[20] = Preemergence, 31 g ai/ha, scale 0 to 100, 0 is no effect, 100 is complete control
[21] = Preemergence, 62 g ai/ha, scale 0 to 100, 0 is no effect, 100 is complete control
[22] = Preemergence, 125 g ai/ha, scale 0 to 100, 0 is no effect, 100 is complete control
[23] = Preemergence, 250 g ai/ha, scale 0 to 100 (0 no effect, 100 complete control)
[24] = postemergence, 125 g ai/ha, scale 0 to 100, 0 no effect, 100 complete control

COc1nn(C)c(=O)c(-c2c(C)ccc3ccccc23)c1OC(C)=O [Compound 138]
85: Pigweed plant response rating [4, 18] | Plant response rating, Foxtail, Giant [5, 21] | Plant response rating, Velvetleaf [6, 17] | Plant response rating, Velvetleaf [6, 20] | Plant response rating, Oilseed Rape [13, 20]
15: Plant response rating, Corn [1, 19] | Corn plant response rating [1, 23] | Corn plant response rating [1, 24] | Soybean plant response rating [3, 23] | Plant response rating, Crabgrass, Large [14, 17] | Plant response rating, Johnsongrass [15, 21]
60: Foxtail, Giant plant response rating [5, 18] | Plant response rating, Wheat [7, 17] | Plant response rating, Nutsedge, Yellow [12, 21]
40: Wheat plant response rating [7, 18] | Plant response rating, Blackgrass [10, 22] | Plant response rating, Crabgrass, Large [14, 21]
0: Plant response rating, Corn [1, 17] | Corn plant response rating [1, 18] | Plant response rating, Soybean [3, 20] | Plant response rating, Soybean [3, 21] | Plant response rating, Wheat [7, 20] | Plant response rating, Crabgrass, Large [14, 20]
10: Ryegrass, Italian plant response rating [2, 24] | Plant response rating, Soybean [3, 17] | Soybean plant response rating [3, 18] | Soybean plant response rating [3, 24] | Plant response rating, Johnsongrass [15, 17] | Johnsongrass plant response rating [15, 18] | Plant response rating, Johnsongrass [15, 20]
30: Plant response rating, Johnsongrass [15, 22]
55: Plant response rating, Ryegrass, Italian [2, 20] | Plant response rating, Blackgrass [10, 21]
45: Plant response rating, Blackgrass [10, 20] | Plant response rating, Nutsedge, Yellow [12, 17]
5: Plant response rating, Corn [1, 20] | Plant response rating, Corn [1, 21] | Plant response rating, Corn [1, 22] | Plant response rating, Ryegrass, Italian [2, 17] | Ryegrass, Italian plant response rating [2, 18] | Plant response rating, Wheat [7, 22] | Wheat plant response rating [7, 23] | Plant response rating, Blackgrass [10, 17] | Blackgrass plant response rating [10, 18] | Plant response rating, Nutsedge, Yellow [12, 20]
20: Plant response rating, Soybean [3, 22] | Crabgrass, Large plant response rating [14, 18] | Crabgrass, Large plant response rating [14, 24] | Plant response rating, Johnsongrass [15, 19] | Johnsongrass plant response rating [15, 23] | Johnsongrass plant response rating [15, 24]
95: Ryegrass, Italian plant response rating [2, 23] | Velvetleaf plant response rating [6, 24] | Plant response rating, Lambsquarters [8, 20] | Plant response rating, Lambsquarters [8, 21] | Lambsquarters plant response rating [8, 24] | Plant response rating, Galium [9, 19] | Plant response rating, Galium [9, 20] | Galium plant response rating [9, 24] | Waterhemp plant response rating [11, 18] | Plant response rating, Waterhemp [11, 20] | Plant response rating, Nutsedge, Yellow [12, 22] | Plant response rating, Oilseed Rape [13, 17]
25: Plant response rating, Soybean [3, 19] | Plant response rating, Crabgrass, Large [14, 19]
65: Foxtail, Giant plant response rating [5, 24] | Nutsedge, Yellow plant response rating [12, 18]
35: Plant response rating, Foxtail, Giant [5, 17] | Plant response rating, Wheat [7, 21]
90: Plant response rating, Ryegrass, Italian [2, 21] | Plant response rating, Ryegrass, Italian [2, 22] | Pigweed plant response rating [4, 24] | Velvetleaf plant response rating [6, 18] | Plant response rating, Velvetleaf [6, 21] | Plant response rating, Wheat [7, 19] | Plant response rating, Lambsquarters [8, 17] | Lambsquarters plant response rating [8, 18] | Plant response rating, Galium [9, 17] | Galium plant response rating [9, 18] | Blackgrass plant response rating [10, 23] | Plant response rating, Waterhemp [11, 17] | Nutsedge, Yellow plant response rating [12, 23] | Plant response rating, Oilseed Rape [13, 21] | Plant response rating, Oilseed Rape [13, 22] | Plant response rating, Morningglory [16, 21]
50: Blackgrass plant response rating [10, 24]
80: Plant response rating, Pigweed [4, 17] | Plant response rating, Foxtail, Giant [5, 19] | Plant response rating, Foxtail, Giant [5, 20] | Wheat plant response rating [7, 24] | Plant response rating, Blackgrass [10, 19] | Plant response rating, Nutsedge, Yellow [12, 19] | Crabgrass, Large plant response rating [14, 23] | Plant response rating, Morningglory [16, 20]
70: Plant response rating, Ryegrass, Italian [2, 19] | Plant response rating, Crabgrass, Large [14, 22]
100: Plant response rating, Pigweed [4, 20] | Plant response rating, Pigweed [4, 22] | Pigweed plant response rating [4, 23] | Plant response rating, Foxtail, Giant [5, 22] | Foxtail, Giant plant response rating [5, 23] | Velvetleaf plant response rating [6, 23] | Plant response rating, Lambsquarters [8, 22] | Lambsquarters plant response rating [8, 23] | Plant response rating, Waterhemp [11, 19] | Plant response rating, Waterhemp [11, 21] | Waterhemp plant response rating [11, 23] | Oilseed Rape plant response rating [13, 23] | Morningglory plant response rating [16, 18] | Plant response rating, Morningglory [16, 19]
98: Plant response rating, Pigweed [4, 19] | Plant response rating, Pigweed [4, 21] | Plant response rating, Velvetleaf [6, 19] | Plant response rating, Velvetleaf [6, 22] | Plant response rating, Lambsquarters [8, 19] | Plant response rating, Galium [9, 21] | Plant response rating, Galium [9, 22] | Galium plant response rating [9, 23] | Plant response rating, Waterhemp [11, 22] | Waterhemp plant response rating [11, 24] | Oilseed Rape plant response rating [13, 18] | Plant response rating, Oilseed Rape [13, 19] | Oilseed Rape plant response rating [13, 24] | Plant response rating, Morningglory [16, 17] | Plant response rating, Morningglory [16, 22] | Morningglory plant response rating [16, 23] | Morningglory plant response rating [16, 24]
75: Nutsedge, Yellow plant response rating [12, 24]
